Experiments:
[1] = test system: Wistar rats; test: open field test 4 hours after ethanol narcosis; format: in vivo, rat; conditions: SkQ1 250 nM orally after ethanol narcosis; vs negative control, p<0.05
Method: FIG. 5 is a schematic representation of the behavior parameters in the open field test 4 hours after ethanol narcosis of all groups in % to intact control. (*−p<0.05 for SKQ-1 250 nM compared to negative control);
(§1) In these experiments, 6 groups of experimental animals (Wistar rats) were used. (1) The Intact Control group (n=12), had no ethanol narcosis, and were orally administered a normal isotonic 0.9% NaCl solution; (2) the Negative Control group (n=12) was orally administered a normal physiological solution after ethanol narcosis; (3) The SkQ1 50 nM control group (n=12) was orally administered SkQ1 in a concentration 50 nM after ethanol narcosis; (4) The SkQ1 250 nM control group (n=12) was orally administered SkQ1 in a concentration of 250 nM after ethanol narcosis; (5) The SkQ1 1250 nM control group (n=12) was orally administered SkQ1 in a concentration of 1250 nM after ethanol narcosis; (6) the SkQ1 1250 nM intr control group (n=13) was intraperitoneally administered SkQ1 in a concentration of 1250 nM after ethanol narcosis.
(§2) In the Negative Control group ethanol intoxication caused a decrease of locomotor activity compared to Intact Control group: decreased track length (p<0.05), movement time (p<0.05), mean speed (p<0.05) and increased immobilization time (p<0.05) (FIG. 4). […]

[2] = test system: Wistar rats; test: muscle strength measurement 4 hours after ethanol narcosis; format: in vivo, rat; conditions: SkQ1 250 nM after ethanol narcosis; p<0.05
Method: FIG. 6 is a graphic representation showing muscle strength measurement 4 hours after ethanol narcosis in % to intact control. *−p<0.05 to negative control, #−p<0.05 to intact control;
as §1, §2

[3] = test system: Wistar rats; test: elevated plus maze test 24 hours after ethanol narcosis; format: in vivo, rat; conditions: 250 nM SkQ1 group; p<0.05
Method: FIG. 8 is a graphic representation showing behavior parameters in the elevated plus maze test 24 hours after ethanol narcosis in % to negative control. (*−p<0.05 to intact control);
as §1
Twenty-four hours after ethanol narcosis, elevated plus maze (Treit et al. (1993) Pharmacol. Biochem. Behav. 44:463-9) and Porsolt forced swimming (Petit-Demouliere et al. (2005) Psychopharmacol. (Berl). 177: 245-55) tests were performed. […]

[4] = test system: Wistar rats; test: acoustical startle reflex, pre-impulse inhibition in offspring of rats with hyperhomocysteinemia; format: in vivo, rat; conditions: pups day 45
Text: FIG. 13 is a graphic representation showing the inhibition of startle reaction to loud stimulus by pre-impulse in rats, where the histogram bars indicate the mean level of startle reaction after pre-stimulus as % to that of control group of rats (without hyperhomocisteinemia). l-m corresponds to group of rats treated with high L-methionine diet, and skq+lm corresponds to group of rats treated with high L-methionine diet and SkQ1.
FIG. 14 is a graphic representation showing habituation of rats to double acoustic stimulus in normal conditions, under hyperhomocisteinemia and under hyperhomocisteinemia treated with SkQ1, where motor reaction to the double stimulus and P values for different pairs of groups is indicated.
An experiment was performed on 161 female Wistar rats (n=12) with body weight 200 g-250 g and their offspring (n=149) from 0 to 1.5 months old. All animals were SPF-category and were housed under the standard conditions according to GLP-regulations (controlled microbiological conditions, light-dark cycle 12/12 hours, ventilation rate 10-12 V/h, room temperature 22+2° C., with maximum change 1° C. per day, humidity 30-70%). Rats were housed in individual cages with free access to food and water.
Each female rat was held with 3 male rats for one night. First day of the pregnancy was considered to be the day when spermatozoon were found in a vaginal smear. […]

[5] = test system: Wistar rats; conditions: open field test; cited from earlier work

With CC1=C(C)C(=O)C(CCCCCCCCCC[P+](c2ccccc2)(c2ccccc2)c2ccccc2)=CC1=O [SkQ1, plastoquinonyl decyltriphenyl-phosphonium] the immobilization time [1] was “decreasing”, the track length [1] was “increasing” and the muscle strength [2] was “increasing”. The “looking out from closed arms” value [3] was “increased”, the “number of risk behavior” value [3] was “increased” and the “parameters of pre-impulse inhibition of the progeny” value ([4]; SkQ1 250 nM/kg orally to mother rats once per 2 d during lactation) was “normalized”. The “non stable and very high reflex reaction on sound stimuli (effect of hyperhomocisteinemia)” value ([4]; SkQ1-treated group) was “significantly reduced” and the “difference in number of squares crossed between 14-month-old and 3-month-old rats” value [5] was “abolished”.

— patent US20140329776A1, “Mitochondria-Targeted Antioxidants for Treatment of Age-Related Brain Disorders” (MITOTECH S.A., priority 2011, published 2014)
